From ChEMBL document CHEMBL4507268 (2021)

What was measured:
[1] = target: Sodium-dependent noradrenaline transporter (Homo sapiens) (UniProt P23975); settings: Compound concentration 10.0 uM
[2] = target: T1, Receptor-interacting serine/threonine-protein kinase 1 (Homo sapiens) (UniProt Q13546); settings: Compound concentration 1.0 uM
T1 sequence (whole entry): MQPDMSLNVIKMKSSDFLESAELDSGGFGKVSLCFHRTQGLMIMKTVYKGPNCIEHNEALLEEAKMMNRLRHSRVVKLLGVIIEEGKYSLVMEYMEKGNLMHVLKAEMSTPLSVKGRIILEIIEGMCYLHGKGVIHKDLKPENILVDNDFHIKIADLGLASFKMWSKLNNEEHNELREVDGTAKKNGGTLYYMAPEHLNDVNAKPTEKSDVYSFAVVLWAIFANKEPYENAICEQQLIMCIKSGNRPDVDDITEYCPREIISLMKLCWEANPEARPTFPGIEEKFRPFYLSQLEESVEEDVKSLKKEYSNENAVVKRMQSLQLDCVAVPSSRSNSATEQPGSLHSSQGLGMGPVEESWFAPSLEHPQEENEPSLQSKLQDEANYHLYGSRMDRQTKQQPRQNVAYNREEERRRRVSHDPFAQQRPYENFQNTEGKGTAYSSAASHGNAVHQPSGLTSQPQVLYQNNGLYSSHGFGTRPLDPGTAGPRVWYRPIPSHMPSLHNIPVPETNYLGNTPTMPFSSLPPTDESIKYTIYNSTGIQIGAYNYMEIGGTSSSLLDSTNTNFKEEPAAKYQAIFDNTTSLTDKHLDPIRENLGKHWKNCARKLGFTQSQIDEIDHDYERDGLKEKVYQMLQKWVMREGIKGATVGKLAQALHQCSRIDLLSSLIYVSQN

[3] = target: T2, Serine/threonine-protein kinase Nek11 (Homo sapiens) (UniProt Q8NG66); settings: Compound concentration 1.0 uM
T2 sequence (whole entry): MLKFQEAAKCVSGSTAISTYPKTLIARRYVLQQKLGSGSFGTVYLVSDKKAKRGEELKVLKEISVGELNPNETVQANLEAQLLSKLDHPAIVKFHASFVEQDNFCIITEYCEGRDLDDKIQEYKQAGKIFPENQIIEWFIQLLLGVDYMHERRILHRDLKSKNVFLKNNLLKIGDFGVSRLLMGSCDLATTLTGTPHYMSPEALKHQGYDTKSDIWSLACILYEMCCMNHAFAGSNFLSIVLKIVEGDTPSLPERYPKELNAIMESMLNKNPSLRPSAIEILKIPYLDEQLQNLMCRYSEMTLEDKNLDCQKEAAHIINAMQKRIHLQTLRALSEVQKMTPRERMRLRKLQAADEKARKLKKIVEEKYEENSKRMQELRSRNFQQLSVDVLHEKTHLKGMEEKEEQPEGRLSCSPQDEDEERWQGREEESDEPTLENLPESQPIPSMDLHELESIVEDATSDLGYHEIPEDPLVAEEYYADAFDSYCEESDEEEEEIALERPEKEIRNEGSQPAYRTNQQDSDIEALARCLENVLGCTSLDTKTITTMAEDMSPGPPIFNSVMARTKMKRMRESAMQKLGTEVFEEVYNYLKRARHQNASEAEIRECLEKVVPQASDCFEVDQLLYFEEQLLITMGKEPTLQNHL

[4] = target: Serine/threonine-protein kinase PAK 4 (Homo sapiens) (UniProt O96013); settings: Compound concentration 1.0 uM
[5] = target: T3, Serine/threonine-protein kinase ICK (Homo sapiens) (UniProt Q9UPZ9); settings: Compound concentration 1.0 uM
T3 sequence (whole entry): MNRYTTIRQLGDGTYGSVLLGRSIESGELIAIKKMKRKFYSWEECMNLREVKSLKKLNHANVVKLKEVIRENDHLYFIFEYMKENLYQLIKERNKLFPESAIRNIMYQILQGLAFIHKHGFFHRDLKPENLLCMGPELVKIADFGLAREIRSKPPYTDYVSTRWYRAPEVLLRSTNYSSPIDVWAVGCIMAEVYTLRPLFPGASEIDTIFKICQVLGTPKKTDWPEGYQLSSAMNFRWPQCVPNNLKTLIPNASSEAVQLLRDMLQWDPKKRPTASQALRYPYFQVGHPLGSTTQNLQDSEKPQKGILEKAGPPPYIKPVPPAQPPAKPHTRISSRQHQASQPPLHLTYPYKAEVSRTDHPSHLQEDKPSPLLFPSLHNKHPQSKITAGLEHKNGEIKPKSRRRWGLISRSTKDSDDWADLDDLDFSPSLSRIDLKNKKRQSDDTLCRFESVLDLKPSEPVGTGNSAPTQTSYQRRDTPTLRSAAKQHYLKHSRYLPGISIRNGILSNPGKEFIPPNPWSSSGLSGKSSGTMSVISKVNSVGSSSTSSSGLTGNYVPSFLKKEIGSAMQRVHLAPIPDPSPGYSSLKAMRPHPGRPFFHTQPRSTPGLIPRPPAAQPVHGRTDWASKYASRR

[6] = target: Rho-associated protein kinase 1 (Homo sapiens) (UniProt Q13464); settings: Compound concentration 1.0 uM
[7] = target: CDK9/cyclin T1 (Homo sapiens) (UniProt O60563+P50750); settings: Compound concentration 1.0 uM
[8] = target: Insulin receptor (Homo sapiens) (UniProt P06213); settings: Compound concentration 1.0 uM
Insulin receptor (Homo sapiens), sequence (P06213 28-758 limits assumed): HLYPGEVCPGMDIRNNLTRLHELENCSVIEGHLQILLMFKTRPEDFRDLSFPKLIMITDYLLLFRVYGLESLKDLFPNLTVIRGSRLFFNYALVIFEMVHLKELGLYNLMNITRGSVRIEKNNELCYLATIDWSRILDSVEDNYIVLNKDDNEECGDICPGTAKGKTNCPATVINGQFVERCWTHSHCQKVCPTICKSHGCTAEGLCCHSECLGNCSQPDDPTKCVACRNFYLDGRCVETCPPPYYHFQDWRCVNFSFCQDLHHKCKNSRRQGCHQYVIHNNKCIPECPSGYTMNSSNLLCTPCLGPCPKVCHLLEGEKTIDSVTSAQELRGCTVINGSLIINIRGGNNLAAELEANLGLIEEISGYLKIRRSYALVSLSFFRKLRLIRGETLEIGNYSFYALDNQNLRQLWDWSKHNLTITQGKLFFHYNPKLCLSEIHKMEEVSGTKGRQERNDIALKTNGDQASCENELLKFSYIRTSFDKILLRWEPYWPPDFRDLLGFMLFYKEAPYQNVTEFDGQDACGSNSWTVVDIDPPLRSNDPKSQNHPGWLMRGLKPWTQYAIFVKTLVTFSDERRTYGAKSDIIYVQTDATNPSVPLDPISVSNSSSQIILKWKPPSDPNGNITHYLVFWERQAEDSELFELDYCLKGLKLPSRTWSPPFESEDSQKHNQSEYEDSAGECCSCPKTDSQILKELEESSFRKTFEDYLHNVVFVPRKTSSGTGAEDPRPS
Insulin receptor (Homo sapiens), sequence (P06213 763-1382 limits assumed): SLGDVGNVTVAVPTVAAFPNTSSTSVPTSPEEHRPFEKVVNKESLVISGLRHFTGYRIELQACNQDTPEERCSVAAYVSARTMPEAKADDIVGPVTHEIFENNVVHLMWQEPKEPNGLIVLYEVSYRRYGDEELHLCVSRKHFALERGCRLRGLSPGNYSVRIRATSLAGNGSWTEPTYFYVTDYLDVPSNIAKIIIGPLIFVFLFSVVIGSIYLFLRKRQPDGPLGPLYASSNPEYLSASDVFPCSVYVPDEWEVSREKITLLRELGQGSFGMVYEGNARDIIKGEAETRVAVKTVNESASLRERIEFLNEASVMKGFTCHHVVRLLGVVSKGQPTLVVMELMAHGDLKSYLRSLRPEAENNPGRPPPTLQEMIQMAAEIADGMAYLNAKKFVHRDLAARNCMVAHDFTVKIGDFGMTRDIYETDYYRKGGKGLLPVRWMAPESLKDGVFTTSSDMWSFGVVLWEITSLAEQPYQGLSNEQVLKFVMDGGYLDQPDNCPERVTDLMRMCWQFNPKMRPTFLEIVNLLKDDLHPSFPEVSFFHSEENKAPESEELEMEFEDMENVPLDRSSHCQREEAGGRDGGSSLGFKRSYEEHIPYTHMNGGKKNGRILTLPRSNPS

[9] = target: Tyrosine-protein kinase JAK1 (Homo sapiens) (UniProt P23458); settings: Compound concentration 1.0 uM
Tyrosine-protein kinase JAK1 (Homo sapiens), sequence (P23458 whole entry): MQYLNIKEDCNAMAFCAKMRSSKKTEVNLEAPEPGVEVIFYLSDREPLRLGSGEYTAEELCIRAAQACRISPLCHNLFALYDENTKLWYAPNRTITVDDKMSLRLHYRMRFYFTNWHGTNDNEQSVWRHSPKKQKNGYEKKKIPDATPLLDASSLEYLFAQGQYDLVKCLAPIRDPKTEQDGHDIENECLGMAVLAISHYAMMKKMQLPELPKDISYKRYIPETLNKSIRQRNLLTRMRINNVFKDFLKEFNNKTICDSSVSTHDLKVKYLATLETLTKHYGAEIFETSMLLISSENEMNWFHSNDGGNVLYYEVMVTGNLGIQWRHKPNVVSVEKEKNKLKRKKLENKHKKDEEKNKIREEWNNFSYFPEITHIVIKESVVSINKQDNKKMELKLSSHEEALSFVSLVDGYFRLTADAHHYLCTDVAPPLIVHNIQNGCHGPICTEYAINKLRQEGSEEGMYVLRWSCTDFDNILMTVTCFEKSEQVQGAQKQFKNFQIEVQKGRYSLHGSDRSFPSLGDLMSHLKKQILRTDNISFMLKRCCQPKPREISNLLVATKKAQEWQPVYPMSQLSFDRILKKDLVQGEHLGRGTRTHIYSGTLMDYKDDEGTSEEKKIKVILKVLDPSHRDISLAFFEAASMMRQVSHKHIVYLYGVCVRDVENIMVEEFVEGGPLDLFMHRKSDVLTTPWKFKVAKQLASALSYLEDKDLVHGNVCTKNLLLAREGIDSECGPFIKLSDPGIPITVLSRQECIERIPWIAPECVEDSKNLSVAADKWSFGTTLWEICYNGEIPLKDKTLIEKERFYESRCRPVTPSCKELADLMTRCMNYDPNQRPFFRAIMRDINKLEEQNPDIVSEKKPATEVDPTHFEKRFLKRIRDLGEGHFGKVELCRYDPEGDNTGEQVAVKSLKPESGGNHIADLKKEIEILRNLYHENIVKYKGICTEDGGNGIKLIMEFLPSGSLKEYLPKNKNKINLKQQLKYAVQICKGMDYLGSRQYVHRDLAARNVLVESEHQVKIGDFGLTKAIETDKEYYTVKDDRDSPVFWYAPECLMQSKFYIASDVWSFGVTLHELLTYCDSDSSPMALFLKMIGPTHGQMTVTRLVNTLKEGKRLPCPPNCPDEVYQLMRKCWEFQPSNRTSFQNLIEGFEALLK

[10] = target: T4, Dual specificity tyrosine-phosphorylation-regulated kinase 2 (Homo sapiens) (UniProt Q92630); settings: Compound concentration 1.0 uM
T4 sequence (whole entry): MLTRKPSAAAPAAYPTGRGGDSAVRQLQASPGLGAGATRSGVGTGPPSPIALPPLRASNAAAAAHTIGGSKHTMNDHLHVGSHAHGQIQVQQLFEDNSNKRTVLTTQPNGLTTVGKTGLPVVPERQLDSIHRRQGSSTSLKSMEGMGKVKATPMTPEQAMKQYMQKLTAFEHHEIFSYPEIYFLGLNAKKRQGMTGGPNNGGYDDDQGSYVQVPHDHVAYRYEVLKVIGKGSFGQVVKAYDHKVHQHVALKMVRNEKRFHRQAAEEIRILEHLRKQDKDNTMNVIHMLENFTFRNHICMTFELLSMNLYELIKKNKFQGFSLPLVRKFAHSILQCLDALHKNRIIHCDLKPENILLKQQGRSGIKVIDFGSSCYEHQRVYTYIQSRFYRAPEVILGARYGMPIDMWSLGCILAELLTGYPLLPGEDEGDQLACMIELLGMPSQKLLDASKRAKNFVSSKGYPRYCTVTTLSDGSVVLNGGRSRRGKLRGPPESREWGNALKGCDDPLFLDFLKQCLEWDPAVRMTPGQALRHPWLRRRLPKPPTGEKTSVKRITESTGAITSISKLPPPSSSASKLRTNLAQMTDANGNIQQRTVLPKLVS

[11] = target: eIF-2-alpha kinase GCN2 (Homo sapiens) (UniProt Q9P2K8); settings: Compound concentration 1.0 uM
eIF-2-alpha kinase GCN2 (Homo sapiens), sequence (Q9P2K8 whole entry): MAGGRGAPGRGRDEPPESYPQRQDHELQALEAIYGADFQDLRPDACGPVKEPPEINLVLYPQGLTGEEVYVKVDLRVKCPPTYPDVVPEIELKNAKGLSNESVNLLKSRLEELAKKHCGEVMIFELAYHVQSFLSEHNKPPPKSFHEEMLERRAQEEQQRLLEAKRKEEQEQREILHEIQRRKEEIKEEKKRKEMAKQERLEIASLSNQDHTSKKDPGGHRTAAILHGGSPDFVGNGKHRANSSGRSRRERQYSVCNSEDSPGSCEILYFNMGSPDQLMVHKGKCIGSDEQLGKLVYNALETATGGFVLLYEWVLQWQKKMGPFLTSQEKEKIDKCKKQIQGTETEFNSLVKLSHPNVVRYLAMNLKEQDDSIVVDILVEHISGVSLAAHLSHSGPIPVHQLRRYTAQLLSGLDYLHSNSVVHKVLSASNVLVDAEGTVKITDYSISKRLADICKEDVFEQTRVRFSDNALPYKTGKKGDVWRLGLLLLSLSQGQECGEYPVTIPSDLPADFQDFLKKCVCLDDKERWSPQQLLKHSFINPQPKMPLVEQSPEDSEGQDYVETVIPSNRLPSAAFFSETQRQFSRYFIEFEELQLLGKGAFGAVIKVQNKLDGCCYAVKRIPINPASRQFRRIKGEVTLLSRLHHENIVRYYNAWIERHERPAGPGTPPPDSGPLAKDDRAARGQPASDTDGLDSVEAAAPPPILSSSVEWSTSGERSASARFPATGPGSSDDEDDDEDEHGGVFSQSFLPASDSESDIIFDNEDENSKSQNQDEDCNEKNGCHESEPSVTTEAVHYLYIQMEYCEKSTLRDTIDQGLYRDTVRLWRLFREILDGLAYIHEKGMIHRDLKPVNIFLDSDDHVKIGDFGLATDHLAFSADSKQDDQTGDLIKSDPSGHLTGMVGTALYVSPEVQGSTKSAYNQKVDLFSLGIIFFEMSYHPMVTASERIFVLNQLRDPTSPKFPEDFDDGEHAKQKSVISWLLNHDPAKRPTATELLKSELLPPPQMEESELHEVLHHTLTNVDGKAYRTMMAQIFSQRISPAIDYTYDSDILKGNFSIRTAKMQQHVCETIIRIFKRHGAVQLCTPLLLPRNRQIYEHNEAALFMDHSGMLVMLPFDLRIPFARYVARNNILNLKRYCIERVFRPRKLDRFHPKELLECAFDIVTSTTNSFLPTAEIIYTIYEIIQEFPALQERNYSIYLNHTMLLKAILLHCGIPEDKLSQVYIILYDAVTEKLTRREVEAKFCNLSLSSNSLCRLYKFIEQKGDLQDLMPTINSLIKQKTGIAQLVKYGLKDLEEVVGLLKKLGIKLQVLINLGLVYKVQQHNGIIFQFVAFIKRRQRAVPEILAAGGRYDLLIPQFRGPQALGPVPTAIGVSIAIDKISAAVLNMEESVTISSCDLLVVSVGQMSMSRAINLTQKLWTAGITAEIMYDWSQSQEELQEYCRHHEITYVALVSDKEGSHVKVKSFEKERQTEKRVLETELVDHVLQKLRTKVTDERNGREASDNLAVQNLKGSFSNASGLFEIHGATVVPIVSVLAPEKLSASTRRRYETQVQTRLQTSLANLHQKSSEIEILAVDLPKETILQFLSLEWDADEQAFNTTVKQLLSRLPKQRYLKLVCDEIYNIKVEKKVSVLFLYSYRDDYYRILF

Sodium-dependent noradrenaline transporter (Homo sapiens), sequence (P23975 whole entry): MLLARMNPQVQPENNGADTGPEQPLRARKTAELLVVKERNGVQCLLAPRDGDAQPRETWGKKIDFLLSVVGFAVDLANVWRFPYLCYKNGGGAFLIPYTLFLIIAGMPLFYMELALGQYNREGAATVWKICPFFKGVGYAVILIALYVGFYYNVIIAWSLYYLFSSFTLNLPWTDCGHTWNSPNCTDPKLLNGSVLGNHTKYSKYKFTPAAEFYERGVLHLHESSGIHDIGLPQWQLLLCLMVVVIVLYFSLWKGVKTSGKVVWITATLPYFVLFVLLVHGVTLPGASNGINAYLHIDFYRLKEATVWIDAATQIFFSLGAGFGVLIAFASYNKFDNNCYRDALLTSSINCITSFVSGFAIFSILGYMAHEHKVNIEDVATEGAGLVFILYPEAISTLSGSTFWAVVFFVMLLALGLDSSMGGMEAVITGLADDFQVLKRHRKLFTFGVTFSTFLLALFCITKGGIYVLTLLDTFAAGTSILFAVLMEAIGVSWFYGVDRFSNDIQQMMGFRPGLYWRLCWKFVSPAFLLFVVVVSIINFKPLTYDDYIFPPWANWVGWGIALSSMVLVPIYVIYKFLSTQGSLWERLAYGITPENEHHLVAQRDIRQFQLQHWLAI

Cc1nc(C2CCN(C(=O)c3ccc(OC(F)(F)F)cc3N)CC2)c2ncc(N3CCN(C)CC3)cc2n1 [BAY-693]
inactive: inhibition [1] 24.6%

CN1CCN(c2cnc3c(C4CCN(C(=O)c5ccc(OC(F)(F)F)cc5N)CC4)ncnc3c2)CC1 [BAY-885]
inactive: % residual kinase activity [2] 100% | % residual kinase activity [3] 104% | % residual kinase activity [4] 101% | % residual kinase activity [5] 93% | % residual kinase activity [6] 112% | % residual kinase activity [7] 103% | % residual kinase activity [8] 99% | % residual kinase activity [9] 104% | % residual kinase activity [10] 105% | % residual kinase activity [11] 98%
